Data on one compound can be found in patent US20120035265A1, “COMPOSITIONS, METHODS, AND DEVICES FOR THE TREATMENT OF DYSMENORRHEA” (MediciNova, Inc., priority 2010, published 2012).

Read-outs that look alike come from different tables or passages of the source.

Data set [1] has as its system uterine muscle isolated from pregnant rats. Nature of the data set: Oxytocin-induced contraction of uterine muscle isolated from pregnant rats. The class given is cell-based, rat. The following applies: Rattus norvegicus, contraction induced with 1 mU/mL of oxytocin, mean ± standard error of 10 samples. The method, then:
After SD-strain rats on Day 17 of pregnancy were exsanguinated to death, the uterus was isolated to prepare up to 8 myometrial strips (about 4 mm×10 mm) per animal in the direction of the longitudinal muscle while avoiding the adhesion to the placenta. Each strip was suspended in an organ bath containing 10 mL of a modified Locke-Ringer solution at […] (aerated with 95% O2+5% CO2 gas) with a load of about 1.0 g. After the suspended sample became stable for static tension, 5 μg/mL of PG F2α or 1 mU/mL of oxytocin was added to induce contraction. After the sample was allowed to stand for at least 30 minutes to confirm stable rhythmic contraction for frequency and amplitude, the test, control, or positive control substance solution was added cumulatively at intervals of 5 minutes. After the treatment was completed, 1×10^−5 mol/L of forskolin was added to obtain maximal relaxation. The contractile force of the uterine sample was delivered via a force displacement transducer to a strain pressure amplifier and recorded on a Rectigraph.
Considering the sum of the uterine contraction for 5 minutes before treatment as 100%, the response rate to each concentration of the test, control, or positive control substance solution was calculated from the sum of uterine contraction after treatment for both PG F2α and oxytocin induced contraction. Then, the response rates obtained were used to prepare a concentration-response curve for each sample. The maximum relaxation obtained by adding forskolin was considered as a baseline. Variable points (peaks) with amplitude (tension) of […] or lower were excluded from analysis. Samples showing any of the following events were not used for the study or excluded from analysis.
Microsoft® Excel 2000 (Microsoft Corp.) was used to sum up and calculate data and prepare tables and figures. Using a concentration-response curve prepared for each sample (X axis: log value of the concentration of the substance added, Y axis: response rate), a negative log value (pEC50) of the concentration that inhibited the uterine contraction by 50% (EC50) was calculated from a straight line connecting the 2 concentrations just above and below 50%, and then converted to EC50 (unit: mol/L).

Data set [2] relates to uterine muscles isolated from pregnant rabbits. Nature of the data set: Oxytocin-induced contractions of isolated uterine muscles of pregnant rabbits (organ bath). Type of data set: cell-based, rabbit. The method, then: Uterine muscles of pregnant rabbits were isolated, and experiments were conducted based on organ-bath method. After specimens of uterine muscles were suspended and oxytocin (1 mU/mL)-induced contractions was stabilized, the test substance, control substance or positive control substance was administered every 10 min, while doses were increased gradually. Efficacy of drugs was evaluated by comparing the sum of uterine contraction for 10 min before and after administration of drugs, defining the former as 100%.

For data set [3], the system named is women with primary dysmenorrhea. Nature of the data set: Myometrial activity, uterine blood flow and lower abdominal pain in women with primary dysmenorrhea (intravenous MN-221). Type of data set: in vivo, human. The method, then: Myometrial activity and uterine blood flow is recorded in a group of women, aged 16 to 39 years. All have regular cycles of 25 to 32 days. They suffer regularly from menstrual pain. All are so disabled by the condition that they have to abstain from work for one to three days a month, even if they use non-narcotic analgesics. At least during the first menstrual day, all have a continuous lower abdominal pain, which varies in intensity; most of them also complain of symptoms such as nausea and vomiting. The symptoms during the recordings conform to those experienced during previous menstruations.
In the menstrual cycle preceding the investigation, all women have biphasic basal body temperature recordings, and plasma oestradiol and progesterone concentrations which are higher in the middle of the luteal phase than on the first menstrual day. Recordings are made; each begin within 24 hours of the onset of menstruation lasting for more than three hours.
Myometrial activity is recorded as changes in intrauterine pressure by a microtransducer catheter. The transducer is connected to an amplifier and a potentiometer recorder. Uterine blood flow is recorded by a technique based on measuring thermodilution from a heated thermistor to blood flow in the surrounding tissue. The thermistor is placed in contact with the endometrium of the fundus and, consequently, the recordings mainly reflect the blood flow at that site. The thermistor and the pressure transducer are inserted through the cervical canal into the uterus. The receptors are kept in position by the rigidity of the transducer catheter and by use of sterile paste around the catheters in the vagina.
The patients are asked to report all symptoms during recordings, including changes in character and intensity of the menstrual pain. MN-221 is given as a single bolus intravenous injection of 0.30 mg, 0.60 mg, or 0.90 mg. Before and after the administration of MN-221, pulse rate and arterial blood pressure (measured by auscultation) are registered at 5-minute intervals.

Where [4] appears, read: single bolus intravenous injection of 0.30 mg, 0.60 mg, or 0.90 mg.

For the compound `CN(C)C(=O)COc1ccc2c(c1)C[C@@H](NC[C@H](O)c1ccc(O)c(CCO)c1)CC2` [MN-221, (−)-bis(2-{[(2S)-2-({(2R)-2-hydroxy-2-[4-hydroxy-3-(2-hydroxyethyl)phenyl]ethyl}amino)-1,2,3,4-tetrahydronaphthalen-7-yl]oxy}-N,N-dimethyl-acetamide) monosulfate], the EC50 in data set [1] (read-out: EC50) was 2.25 ± 0.44 nM; in data set [1] (read-out: pEC50 (converted)), 1.86 nM; in data set [2] (Oryctolagus cuniculus, oxytocin (1 mU/mL)-induced contractions, pregnant rabbit uterine muscles, read-out: pD2 values (converted)), 2.51 nM. Also, the “inhibitory effect against oxytocin-induced contractions of isolated uterine muscles” value in data set [2] (oxytocin (1 mU/mL)) is “demonstrated inhibitory effect”. Further, in data set [2] (pregnant rabbit uterine muscles), the “inhibitory effect against oxytocin-induced contractions of uterine muscles, comparison” value was “clearly stronger than that of HSR-81, ritodrine and terbutaline”. Also, the pain relief entry in data set [3] (after injection or infusion) is on record as “pain relief within one minute after injection”. Moreover, the “increase in heart rate, blood pressure, palpitations, tremors, and/or flushes” value in data set [3] (intravenous, all subjects) was “substantially no increase in heart rate, blood pressure, palpitations, tremors, and/or flushes”. Besides, in data set [3] (single bolus intravenous injection), the duration of effect result is listed as “lasts for few hours”. For the same compound, in data set [3] (setting [4]), the “local uterine blood flow” value is on record as “generally increases”. In data set [3] (setting [4]), the myometrial activity entry is recorded as “decreases the myometrial activity”.
